Test results from PMC12957798, “Adaptation of plateau frog peptide: From antimicrobial to angiogenic and proliferative functions” (Journal of Advanced Research, 2025).

Tests used:
[1] = test system: Escherichia coli ATCC2771; experiment: Broth microdilution MIC, E. coli; assay type: cell-based; set-up: unit not given beside the values; settings: positive control, 37 °C, 24 h, OD600
Experimental: (§1) Disk diffusion and broth microdilution tests were selected as the standard method for screening the antimicrobial activity of SC17-2 [58]. The experiments were conducted utilising the disk diffusion test, whereby the following strains were examined: Acinetobacter baumannii (ATCC 19606), Candida auris (ATCC 10231), Pseudomonas aeruginosa (ATCC 27853) and Staphylococcus aureus (ATCC 6538). The concentration of bacterial suspension was then adjusted to 1 × 10^5 CFU/mL with saline, after which it was set aside. Separate plates containing bacterial agar were prepared: MH agar was utilised for the isolation of bacterial samples, while Sartorius agar was employed for the isolation of fungal samples. The suspensions containing the aforementioned microorganisms were then spread on the designated plates at a rate of 1:1000. A sterile filter paper was used to dispense 1 mL of SC17-2 (10 mg/mL), with equal amounts of PBS and Vancomycin/Colistin serving as controls. The plates were then subjected to the appropriate temperature (24 h at 37 °C) and subsequently observed under a camera to ascertain the results. […] At the conclusion of this period, the absorbance was measured using a Microplate Reader (Synergy H1, BioTek, USA) with a wavelength of 600 nm. […]

S. aureus ATCC6538 = experiment: Broth microdilution MIC, S. aureus; assay type: cell-based, Staphylococcus aureus; set-up: unit not given beside the values; settings: positive control, 37 °C, 24 h, OD600
Experimental: as §1

BALB/c mice = experiment: Mouse full-thickness skin wound healing; assay type: in vivo; settings: day 13, VEGF 20 ng/mL, 20 μL daily on wound, relative to day 1, mean ± SEM, n = 7
Experimental: Mice were anaesthetised with sodium pentobarbital 2 % by intraperitoneal injection (0.1 mL/20 g mouse body weight), and after anaesthesia, hair was removed from the back using depilatory cream and power scissors, and circular full-thickness skin wounds of the same diameter were marked and created on the back of each mouse using circular stamps and red sealant. The mouse wounds were then covered and infiltrated daily with 20 μL of different concentrations of SC17-2 or 20 ng/mL VEGF, and an equal volume of saline was used in the control group. The mice were anaesthetised by isoflurane nebulisation (concentration 2 %) every two days and then placed under an optical camera to photograph the effect of the wound area.
Sodium pentobarbital (2 %) was utilised for the anaesthetisation of mice by intraperitoneal injection (0.1 mL/20 g of mouse body weight). Subsequent to the induction of anaesthesia, the dorsal hair was removed using depilatory creams and electric scissors. Thereafter, circular full skin wounds of the same diameter were marked and created on the back of each mouse using circular stamps and red stencils. Mouse wounds were then covered and infiltrated daily with 20 μL of different concentrations of SC17-2 or 20 ng/mL of VEGF, and an equal volume of saline was used in the control group. Mice were anaesthetised every two days using isoflurane nebulisation followed by anaesthesia (concentration 2 %), after which they were placed under an optical camera to photograph the effect of wound area. After 13 days of treatment, mice were anaesthetised using isoflurane nebulisation followed by injection of an overdose of sodium pentobarbital to euthanise the mice (200 mg/kg). The wounds and their surrounding tissues were then excised for histopathological evaluation (Masson and H&E staining) and analysed by Enface immunofluorescence staining.

p-ERK/ERK = experiment: Western blot p-ERK/ERK in HaCaT; assay type: cell-based, Human; settings: VEGF, n = 3
Experimental: (§2) HaCaT was inoculated in 12-well plates (2 × 10^5 cells/well) and cultured for 24 h. Afterwards, HaCaT cells were treated with equal amounts of VEGF, SC17-2, and PBS for 16 h. Cells were washed with PBS, after which the samples were collected and added to 1 mL of RIPA lysate containing protease inhibitors and phosphatase inhibitors and placed on ice for 30 min. Allowed to be after sufficient lysis, the supernatant was centrifuged and collected to determine the protein concentration using a nanodrop, followed by the addition of SDS sampling buffer and heating at 95 °C for 10 min. Samples were loaded and run on a gel block based on the determined sample concentration, and then electrotransferred onto a 0.45 μm PVDF membrane. […] After washing three times with TBST, proteins were visualised and scanned by enhanced chemiluminescence using the ChemiDoc XRS imaging system (Bio-Rad, Hercules, CA, USA).

(p-Smad2/3)/(Smad2/3) = experiment: Western blot p-Smad2/3 / Smad2/3 in HaCaT; assay type: cell-based, Human; settings: VEGF, n = 3
Experimental: as §2

TGF-β = experiment: Western blot TGF-β in HaCaT; assay type: cell-based, Human; settings: VEGF, n = 3
Experimental: as §2

A. baumannil ATCC1968 = experiment: Broth microdilution MIC, A. baumannii; assay type: cell-based, Acinetobacter baumannii; settings: positive control, 37 °C, 24 h, OD600
Experimental: as §1

Colistin
MIC [1]: 0.78 | MIC (S. aureus ATCC6538): 0.78

VEGF
wound area (BALB/c mice): 7.04 ± 1.43% | ERK phosphorylation (p-ERK/ERK): significantly increased ERK phosphorylation | Smad2/3 phosphorylation ((p-Smad2/3)/(Smad2/3)): significantly increased Smad2/3 phosphorylation | expression of TGF-β (TGF-β): significantly increase the expression of TGF-β

CN[C@H](CC(C)C)C(=O)N[C@H]1C(=O)N[C@@H](CC(N)=O)C(=O)N[C@H]2C(=O)N[C@H]3C(=O)N[C@H](C(=O)N[C@H](C(=O)O)c4cc(O)cc(O)c4-c4cc3ccc4O)[C@H](O)c3ccc(c(Cl)c3)Oc3cc2cc(c3O[C@@H]2O[C@H](CO)[C@@H](O)[C@H](O)[C@H]2O[C@H]2C[C@](C)(N)[C@H](O)[C@H](C)O2)Oc2ccc(cc2Cl)[C@H]1O [Vancomycin]
MIC (A. baumannil ATCC1968): 0.78
